According to patent US9133167B2, “Antibacterial quinoline derivatives” (JANSSEN PHARMACEUTICA NV, priority 2012, dated 2015):
≈ marks a conversion by molar mass, not a printed value. Where “and” joins values, the source holds several entries; their conditions need not be identical. Identical values can stand only once.

Legend:
[1] = system: Staphylococcus aureus (ATCC29213); assay: Microtitre plate assay, IC90 for bacterial growth, Staphylococcus aureus strain; type: cell-based; details: 90% inhibitory concentration for bacterial growth, 24 hours at 37° C., read-out: IC90 (μg/ml) STA B29213
[2] = system: Mycobacterium smegmatis (ATCC607); assay: In-vitro anti-bacterial activity against strain M. smegmatis ATCC607 (Alamar Blue growth inhibition); type: cell-based; details: Mycolicibacterium smegmatis, 90% inhibitory concentration for bacterial growth, 48 hours at 37° C., read-out: IC90 (μg/ml) MSM 607
Protocol: D.1. In-Vitro Method for Testing Compounds for Anti-Bacterial Activity Against Strain M. Smegmatis ATCC607.
Flat-bottom, sterile 96-well plastic microtiter plates were filled with 180 μl of sterile deionized water, supplemented with 0.25% BSA. Subsequently, stock solutions (7.8× final test concentration) of compounds were added in 45 μl volumes to a series of duplicate wells in column 2 so as to allow evaluation of their effects on bacterial growth. Serial five-fold dilutions (45 μl in 180 μl) were made directly in the microtiter plates from column 2 to 11 using a customised robot system (Zymark Corp., Hopkinton, Mass.). Pipette tips were changed after every 3 dilutions to minimize pipetting errors with high hydrophobic compounds. Untreated control samples with (column 1) and without (column 12) inoculum were included in each microtiter plate. Approximately 250 CFU per well of bacteria inoculum, in a volume of 100 in 2.8× Mueller-Hinton broth medium, was added to the rows A to H, except column 12. The same volume of broth medium without inoculum was added to column 12 in row A to H. The cultures were incubated at 37° C. for 48 hours in a humidified 5% CO2 atmosphere (incubator with open air valve and continuous ventilation). At the end of incubation, two days after inoculation, the bacterial growth was quantitated fluorometrically. Therefore Alamar Blue (10×) was added to all wells in a volume of 20 and plates were incubated for another 2 hours at […]
The fluorescence was read in a computer-controlled fluorometer (Cytofluor, Biosearch) at an excitation wavelength of 530 nm and an emission wavelength of 590 nm (gain 30). The percentage growth inhibition achieved by the compounds was calculated according to standard methods and expressed as IC90 […] which defines the 90% inhibitory concentration for bacterial growth.

IC90 [1] [µg/mL]	IC90 [2] [µg/mL]	melting point	SMILES
11.3 (≈ 19.9 µM)	3.57 (≈ 6.31 µM)	212 °C	CCn1c(=O)c(C(c2ccc(Cl)cc2)C2(O)CCN(Cc3ccccc3)CC2)cc2cc(Br)ccc21 (stereo not drawn) [Compound 2]
14.3 (≈ 25.1 µM)	14.3 (≈ 25.1 µM)	220 °C	COc1nc2ccc(Br)cc2cc1C(c1ccc(Cl)cc1)C1(O)CCN(Cc2cccc(F)c2)CC1 (stereo not drawn) [Compound 17]
> 16.3	16.3 (≈ 32.4 µM)	196 °C	COc1nc2ccc(CO)cc2cc1C(c1ccc(Cl)cc1)C1(O)CCN(Cc2ccccc2)CC1 (stereo not drawn) [Compound 22]
7.1 (≈ 12.6 µM)	3.56 (≈ 6.31 µM)	172 °C	CCn1c(=O)c(C(c2ccc(Cl)cc2)C2(O)CCN(Cc3ccccc3)CC2)cc2cc(-c3cccnc3)ccc21 (stereo not drawn) [Compound 3]
5.99 (≈ 12.6 µM)	2.39 (≈ 5.02 µM)	193 °C	COc1nc2ccc(Br)cc2cc1C(c1ccc(Cl)cc1)C1(O)CCN(C)CC1 (stereo not drawn) [Compound 16]
4.27 (≈ 7.94 µM)	–	244 °C	O=c1[nH]c2ccc(Br)cc2cc1C(c1ccc(Cl)cc1)C1(O)CCN(Cc2ccccc2)CC1 (stereo not drawn) [Compound 10]
1.59 (≈ 3.16 µM)	6.34 (≈ 12.6 µM)	> 250 °C	COc1nc2ccc(Br)cc2cc1C(c1ccc(Cl)cc1)C1(O)CCN(C(=N)N)CC1 (stereo not drawn) [Compound 25]
8.38 (≈ 14.1 µM)	7.47 (≈ 12.6 µM)	146 °C	COc1nc2ccc(C(=O)Nc3cccnc3)cc2cc1C(c1ccc(Cl)cc1)C1(O)CCN(Cc2ccccc2)CC1 (stereo not drawn) [Compound 24]
6.81 (≈ 11 µM)	–	158 °C	OC1(C(c2ccc(Cl)cc2)c2cc3cc(Br)ccc3nc2N2CCOCC2)CCN(CCc2ccccc2)CC1 (stereo not drawn) [Compound 1]
7.58 (≈ 16 µM)	4.78 (≈ 10.1 µM)	204 °C	COc1nc2ccc(Br)cc2cc1C(c1ccc(SC)cc1)C1(O)CCNCC1 (stereo not drawn) [Compound 9]
> 30.9	3.09 (≈ 6.93 µM)	> 250 °C and 250 °C	O=c1[nH]c2ccc(-c3cccnc3)cc2cc1C(c1ccc(Cl)cc1)C1(O)CCNCC1 (stereo not drawn) [Compound 26]
> 22	–	119 °C	COc1nc2ccccc2cc1C(c1ccccc1)C1(O)CCNCC1 (stereo not drawn) [Compound 12]
